These results are taken from ChEMBL document CHEMBL1149643, “Synthesis of novel bicyclo[4.1.0]heptane and bicyclo[3.1.0]hexane derivatives as melanin-concentrating hormone receptor R1 antagonists” (Bioorg Med Chem Lett, 2007).

Molecules are shown by their SMILES.

Series [1] addresses Melanin-concentrating hormone receptor 1 (Homo sapiens, UniProt Q99705). Briefly: Antagonist activity at MCHR1. The series is classed as functional.
Series [2] has as its target hERG (KCNH2) (Homo sapiens, UniProt Q12809). Description: Inhibition of hERG at 5 ug/ml by rubidium efflux assay. The series is classed as toxicity.
Series [3] relates to Mus musculus. Description: Ex vivo receptor occupancy at MCHR1 in mouse at 30 mg/kg, po. In kind it is functional.

Sequence of hERG (KCNH2) (Q12809 whole entry): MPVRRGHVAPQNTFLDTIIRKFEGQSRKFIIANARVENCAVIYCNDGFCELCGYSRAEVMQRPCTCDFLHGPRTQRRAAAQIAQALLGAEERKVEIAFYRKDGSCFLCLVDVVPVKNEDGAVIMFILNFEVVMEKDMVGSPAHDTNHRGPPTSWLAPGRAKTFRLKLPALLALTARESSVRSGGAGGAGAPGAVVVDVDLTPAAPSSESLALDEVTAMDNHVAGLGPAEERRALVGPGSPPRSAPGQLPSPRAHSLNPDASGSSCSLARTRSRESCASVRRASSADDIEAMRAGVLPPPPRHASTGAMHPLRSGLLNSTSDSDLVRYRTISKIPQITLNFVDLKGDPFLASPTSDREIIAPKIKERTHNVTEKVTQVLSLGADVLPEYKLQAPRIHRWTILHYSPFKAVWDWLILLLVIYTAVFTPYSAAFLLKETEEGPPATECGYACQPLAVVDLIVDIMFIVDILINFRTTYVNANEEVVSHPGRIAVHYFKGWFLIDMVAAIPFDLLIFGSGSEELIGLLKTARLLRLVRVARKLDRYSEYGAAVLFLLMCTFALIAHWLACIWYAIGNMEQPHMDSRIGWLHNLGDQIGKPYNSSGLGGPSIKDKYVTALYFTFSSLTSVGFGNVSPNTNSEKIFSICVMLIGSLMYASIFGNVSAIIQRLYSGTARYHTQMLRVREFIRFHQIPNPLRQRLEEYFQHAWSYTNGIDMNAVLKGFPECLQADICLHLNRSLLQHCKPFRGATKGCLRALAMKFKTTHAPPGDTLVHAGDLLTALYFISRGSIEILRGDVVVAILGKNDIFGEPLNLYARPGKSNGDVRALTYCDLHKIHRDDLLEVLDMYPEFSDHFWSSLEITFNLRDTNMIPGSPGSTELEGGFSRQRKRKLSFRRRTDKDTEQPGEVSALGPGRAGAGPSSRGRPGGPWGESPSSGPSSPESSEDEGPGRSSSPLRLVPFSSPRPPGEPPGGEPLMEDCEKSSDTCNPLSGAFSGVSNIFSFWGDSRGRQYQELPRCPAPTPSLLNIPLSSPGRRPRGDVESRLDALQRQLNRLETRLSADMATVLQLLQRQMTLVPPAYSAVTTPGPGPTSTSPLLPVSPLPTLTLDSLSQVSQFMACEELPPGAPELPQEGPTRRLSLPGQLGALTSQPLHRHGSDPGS
Sequence of Melanin-concentrating hormone receptor 1 (Q99705 whole entry): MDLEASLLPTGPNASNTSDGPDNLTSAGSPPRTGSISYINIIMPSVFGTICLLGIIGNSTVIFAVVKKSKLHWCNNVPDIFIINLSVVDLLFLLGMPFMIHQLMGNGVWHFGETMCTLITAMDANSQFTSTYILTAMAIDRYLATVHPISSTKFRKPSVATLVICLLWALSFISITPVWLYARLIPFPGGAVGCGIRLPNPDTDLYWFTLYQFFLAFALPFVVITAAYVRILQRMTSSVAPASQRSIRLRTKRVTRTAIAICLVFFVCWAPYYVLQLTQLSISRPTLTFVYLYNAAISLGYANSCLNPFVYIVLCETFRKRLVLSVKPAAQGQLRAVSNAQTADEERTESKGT

Turning to `NCc1ncc([C@]23CC[C@@H](N(CCCN4CC[C@H](O)C4)C(=O)Nc4ccc(F)c(C(F)(F)F)c4)C2C3)s1` (some centres not stated), in series [1], the affinity, expressed as Ki, was 45 nM. Besides, the inhibition – broadly, the relative decrease from the control value, in per cent – at 5 ug/ml in series [2] was -4%.

Regarding `NCc1ncc([C@@]23CC[C@H](N(CCCN4CC[C@@H](O)C4)C(=O)Nc4ccc(F)c(C(F)(F)F)c4)[C@@H]2C3)s1`, in series [1], the inhibitory constant (Ki) (in general, a measure of affinity in units of concentration, obtained from inhibition or displacement) came to 167 nM. In addition, the inhibition at 5 ug/ml in series [2] was determined as 6%.

For the molecule `N#Cc1cccc([C@]23CC[C@@H](N(CCN4CC[C@@H](O)C4)C(=O)Nc4ccc(F)c(Cl)c4)CC2C3)c1` (some centres not stated), in series [2], the inhibition at 5 ug/ml turned out to be 80%.

With `C[C@@H]1CN(CCCN(C(=O)Nc2cc(Cl)nc(Cl)c2)[C@H]2CC[C@@]3(c4cnc(CN)s4)C[C@@H]23)[C@@H](C)CN1`, the inhibition in vivo (as a rule, the percentage by which the read-out fell short of the control) at 30 mg/kg in series [3] amounted to 20%. The molecule further displayed a Ki in series [1] of 117 nM. For the same molecule, the inhibition at 5 ug/ml in series [2] is -13%.

Take `NCc1ncc([C@]23CC[C@@H](N(CCCN4CC[C@@H](O)C4)C(=O)Nc4ccc(F)c(C(F)(F)F)c4)C2C3)s1` (some centres not stated): in series [1], the Ki amounted to 17 nM. For the same molecule, the inhibition at 5 ug/ml in series [2] is -4%.

Turning to `NCc1ncc([C@]23CC[C@@H](N(CCN4CC[C@H](O)C4)C(=O)Nc4ccc(F)c(C(F)(F)F)c4)C2C3)s1` (some centres not stated), in series [1], affinity was put at a Ki of 99 nM. In series [2], the inhibition at 5 ug/ml was found to be 8%.

Take `N#Cc1cccc([C@]23CC[C@@H](N(CCCN4CC[C@@H](O)C4)C(=O)Nc4ccc(F)c(Cl)c4)[C@H]2C3)c1`: the Ki in series [1] is 22 nM. Further, the inhibition at 5 ug/ml in series [2] is 86%.

In series [3], `C[C@@H]1CN(CCCN(C(=O)Nc2cc(Cl)nc(Cl)c2)[C@H]2CC[C@]3(c4cnc(CN)s4)C[C@H]23)[C@@H](C)CN1` had an inhibition in vivo at 30 mg/kg of 16%. Also, in series [1], the Ki was 6.1 nM. Further, the inhibition at 5 ug/ml in series [2] is -12%.

Molecule `NCc1ncc([C@]23CC[C@@H](N(CCCN4CC5CC4CN5)C(=O)Nc4ccc(F)c(C(F)(F)F)c4)C2C3)s1` (some centres not stated) gave a Ki in series [1] of 73 nM. Moreover, the inhibition at 5 ug/ml in series [2] was found to be 14%.

Molecule `C[C@@H]1CN[C@@H](C)CN1CCCN(C(=O)Nc1cc(Cl)nc(Cl)c1)[C@H]1CC[C@]2(c3cnc(CN)s3)C[C@H]12` registered an inhibition in vivo at 30 mg/kg in series [3] of 39%. Also, the affinity in series [1], expressed as Ki, was 4 nM. Moreover, the inhibition at 5 ug/ml in series [2] was 22%.

On to `NCc1ncc([C@]23CC[C@@H](N(CCN4CCCC4)C(=O)Nc4ccc(F)c(C(F)(F)F)c4)C2C3)s1` (some centres not stated), for which, in series [1], the affinity corresponds to a Ki of 107 nM. Moreover, the inhibition at 5 ug/ml in series [2] came out at 16%.

Turning to `C[C@@H]1CN(CCCN(C(=O)Nc2ccc(F)c(C(F)(F)F)c2)[C@@H]2CC[C@]3(c4cnc(CN)s4)CC23)[C@@H](C)CN1` (some centres not stated), affinity in series [1] was put at a Ki of 19 nM. For the same molecule, the inhibition at 5 ug/ml in series [2] is -8%.

As for `NCc1ncc([C@]23CC[C@H](N(CCCN4CC[C@@H](O)C4)C(=O)Nc4ccc(F)c(C(F)(F)F)c4)[C@H]2C3)s1`, in series [1], the inhibitory constant (Ki) turned out to be 6.6 nM. Moreover, the inhibition at 5 ug/ml in series [2] came to 8%.

As for `NCc1cnc([C@]23CC[C@@H](N(CCN4CCCC4)C(=O)Nc4ccc(F)c(C(F)(F)F)c4)CC2C3)s1` (some centres not stated), affinity in series [1] was put at a Ki of 431 nM. In addition, the inhibition at 5 ug/ml in series [2] worked out at 19%.

In series [3], `NCc1ncc(C2=CCC(N(CCN3CCCC3)C(=O)Nc3ccc(F)c(Cl)c3)CC2)s1` (configuration not stated) yielded an inhibition in vivo at 30 mg/kg of 88%. The inhibition at 5 ug/ml in series [2] was determined as 10%.

`C[C@@H]1CN[C@@H](C)CN1CCCN(C(=O)Nc1cc(Cl)nc(Cl)c1)[C@H]1CC[C@@]2(c3cnc(CN)s3)C[C@@H]12` registered an inhibition in vivo at 30 mg/kg in series [3] of 26%. For the same molecule, the Ki in series [1] is 171 nM. Moreover, the inhibition at 5 ug/ml in series [2] amounted to 17%.

`C[C@@H]1CN(CCCN(C(=O)Nc2cc(Cl)nc(Cl)c2)[C@@H]2CC[C@]3(c4cnc(CN)s4)CC23)[C@@H](C)CN1` (some centres not stated): the Ki in series [1] was determined as 13.1 nM. Moreover, the inhibition at 5 ug/ml in series [2] was 3%.
